According to ChEMBL document CHEMBL3045916, “Synthesis, characterization, biological evaluation and in silico screening of oxadiazinanones” (Med Chem Res, 2013):
In brackets after ≈: the same amount, converted by molar mass.

Assays:
Staphylococcus aureus [1] = assay: Antibacterial activity against methicillin-resistant Staphylococcus aureus assessed as growth inhibition after 24 hr by disk diffusion method; format: functional
[2] = test system: Radical scavenging activity; assay: Antioxidant activity assessed as DPPH radical scavenging activity at 6 ug/mL after 30 min by spectrophotometric analysis relative to control; format: functional
[3] = test system: Radical scavenging activity; assay: Antioxidant activity assessed as DPPH radical scavenging activity after 30 min by spectrophotometric analysis; format: functional
Klebsiella pneumoniae [4] = assay: Antibacterial activity against Klebsiella pneumoniae clinical isolate assessed as growth inhibition after 24 hr by disk diffusion method; format: functional
Escherichia coli [5] = assay: Antibacterial activity against Escherichia coli ATCC 25922 assessed as growth inhibition after 24 hr by disk diffusion method; format: functional
Staphylococcus aureus [6] = assay: Antibacterial activity against methicillin-resistant Staphylococcus aureus assessed as growth inhibition after 24 hr by macro-dilution method; format: functional
[7] = test system: Trichophyton mentagrophytes; assay: Fungicidal activity against Trichophyton mentagrophytes after 48 hr; format: functional
Pseudomonas aeruginosa [8] = assay: Antibacterial activity against Pseudomonas aeruginosa ATCC 9029 assessed as growth inhibition after 24 hr by disk diffusion method; format: functional
Candida albicans [9] = assay: Fungicidal activity against Candida albicans ATCC 90028 after 48 hr; format: functional; conditions: ATCC 90028, 48 h
Talaromyces marneffei [10] = assay: Antifungal activity against Talaromyces marneffei assessed as growth inhibition after 48 hr by agar disk diffusion method; format: functional
Staphylococcus aureus [11] = assay: Bactericidal activity against methicillin-resistant Staphylococcus aureus after 18 to 24 hr; format: functional
Pseudomonas aeruginosa [12] = assay: Antibacterial activity against Pseudomonas aeruginosa ATCC 9029 assessed as growth inhibition after 24 hr by macro-dilution method; format: functional; conditions: ATCC 9029, 24 h
[13] = test system: Trichophyton mentagrophytes; assay: Antifungal activity against Trichophyton mentagrophytes assessed as growth inhibition after 48 hr by agar disk diffusion method; format: functional
Klebsiella pneumoniae [14] = assay: Bactericidal activity against Klebsiella pneumoniae clinical isolate after 18 to 24 hr; format: functional
Pseudomonas aeruginosa [15] = assay: Bactericidal activity against Pseudomonas aeruginosa ATCC 9029 after 18 to 24 hr; format: functional
[16] = test system: Trichophyton mentagrophytes; assay: Antifungal activity against Trichophyton mentagrophytes assessed as growth inhibition after 48 hr by macro-dilution method; format: functional
Streptococcus pyogenes [17] = assay: Bactericidal activity against Streptococcus pyogenes clinical isolate after 18 to 24 hr; format: functional
[18] = test system: Radical scavenging activity; assay: Antioxidant activity assessed as DPPH radical scavenging activity at 4 ug/mL after 30 min by spectrophotometric analysis relative to control; format: functional
Streptococcus pyogenes [19] = assay: Antibacterial activity against Streptococcus pyogenes clinical isolate assessed as growth inhibition after 24 hr by disk diffusion method; format: functional
Candida albicans [20] = assay: Antifungal activity against Candida albicans ATCC 90028 assessed as growth inhibition after 48 hr by macro-dilution method; format: functional; conditions: ATCC 90028, 48 h
Escherichia coli [21] = assay: Antibacterial activity against Escherichia coli ATCC 8739 assessed as growth inhibition after 24 hr by macro-dilution method; conditions: ATCC 8739, 24 h
[22] = test system: Radical scavenging activity; assay: Antioxidant activity assessed as DPPH radical scavenging activity at 10 ug/mL after 30 min by spectrophotometric analysis relative to control; format: functional
Aspergillus fumigatus [23] = assay: Fungicidal activity against Aspergillus fumigatus after 48 hr; format: functional
Aspergillus fumigatus [24] = assay: Antifungal activity against Aspergillus fumigatus assessed as growth inhibition after 48 hr by agar disk diffusion method; format: functional
[25] = test system: Radical scavenging activity; assay: Antioxidant activity assessed as DPPH radical scavenging activity at 2 ug/mL after 30 min by spectrophotometric analysis relative to control; format: functional
[26] = test system: Radical scavenging activity; assay: Antioxidant activity assessed as DPPH radical scavenging activity at 8 ug/mL after 30 min by spectrophotometric analysis relative to control; format: functional
Aspergillus fumigatus [27] = assay: Antifungal activity against Aspergillus fumigatus assessed as growth inhibition after 48 hr by macro-dilution method; format: functional
Klebsiella pneumoniae [28] = assay: Antibacterial activity against Klebsiella pneumoniae clinical isolate assessed as growth inhibition after 24 hr by macro-dilution method; format: functional
Candida albicans [29] = assay: Antifungal activity against Candida albicans ATCC 90028 assessed as growth inhibition after 48 hr by agar disk diffusion method; format: functional
Streptococcus pyogenes [30] = assay: Antibacterial activity against Streptococcus pyogenes clinical isolate assessed as growth inhibition after 24 hr by macro-dilution method; format: functional
Escherichia coli [31] = assay: Bactericidal activity against Escherichia coli ATCC 25922 after 18 to 24 hr; format: functional
Talaromyces marneffei [32] = assay: Fungicidal activity against Talaromyces marneffei after 48 hr; format: functional
Talaromyces marneffei [33] = assay: Antifungal activity against Talaromyces marneffei assessed as growth inhibition after 48 hr by macro-dilution method; format: functional

Structure (SMILES)	diameter of the inhibition zone (DIZ) (Staphylococcus aureus [1]) [mm]	Activity [2] [%]	IC50 [3] [µg/mL]	diameter of the inhibition zone (DIZ) (Klebsiella pneumoniae [4]) [mm]	diameter of the inhibition zone (DIZ) (Escherichia coli [5]) [mm]	MIC (Staphylococcus aureus [6]) [µg/mL]	MFC [7] [µg/mL]	diameter of the inhibition zone (DIZ) (Pseudomonas aeruginosa [8]) [mm]	MFC (Candida albicans [9]) [µg/mL]	diameter of the inhibition zone (DIZ) (Talaromyces marneffei [10]) [mm]	MBC (Staphylococcus aureus [11]) [µg/mL]	MIC (Pseudomonas aeruginosa [12]) [µg/mL]	diameter of the inhibition zone (DIZ) [13] [mm]	MBC (Klebsiella pneumoniae [14]) [µg/mL]	MBC (Pseudomonas aeruginosa [15]) [µg/mL]	MIC [16] [µg/mL]	Activity [18] [%]	Activity [22] [%]	Activity [25] [%]	Activity [26] [%]	further results
CC1(c2ccccc2)NNC(=O)CO1 (stereo not given)	18.2	34.8	8.25 (≈ 42.9 µM)	14.1	17.4	25 (≈ 130 µM)	50 (≈ 260 µM)	24.2	25 (≈ 130 µM)	14.1	50 (≈ 260 µM)	25 (≈ 130 µM)	14.5	100 (≈ 520 µM)	100 (≈ 520 µM)	25 (≈ 130 µM)	23.8	59.5	9.86	46.8	MBC (Streptococcus pyogenes [17]): 50 µg/mL (≈ 260 µM); diameter of the inhibition zone (DIZ) (Streptococcus pyogenes [19]): 19.1 mm; MIC (Candida albicans [20]): 25 µg/mL (≈ 130 µM); MIC (Escherichia coli [21]): 25 µg/mL (≈ 130 µM); MFC (Aspergillus fumigatus [23]): 50 µg/mL (≈ 260 µM); diameter of the inhibition zone (DIZ) (Aspergillus fumigatus [24]): 17.2 mm; MIC (Aspergillus fumigatus [27]): 25 µg/mL (≈ 130 µM); MIC (Klebsiella pneumoniae [28]): 25 µg/mL (≈ 130 µM); diameter of the inhibition zone (DIZ) (Candida albicans [29]): 21.4 mm; MIC (Streptococcus pyogenes [30]): 25 µg/mL (≈ 130 µM); MBC (Escherichia coli [31]): 50 µg/mL (≈ 260 µM); MFC (Talaromyces marneffei [32]): 100 µg/mL (≈ 520 µM); MIC (Talaromyces marneffei [33]): 25 µg/mL (≈ 130 µM)
O=C1O[C@H]([C@@H](O)CO)C(O)=C1O [ASCORBIC ACID]	–	53.4	4.45 (≈ 25.3 µM)	–	–	–	–	–	–	–	–	–	–	–	–	–	34.9	87	18.4	69.3	–
CC1(c2cc(O)ccc2O)NNC(=O)CO1 (stereo not given)	17.6	25.2	12.95 (≈ 57.8 µM)	14.8	17.2	50 (≈ 223 µM)	100 (≈ 446 µM)	24.1	100 (≈ 446 µM)	11.7	100 (≈ 446 µM)	50 (≈ 223 µM)	14.8	100 (≈ 446 µM)	100 (≈ 446 µM)	50 (≈ 223 µM)	18.7	32.3	6.61	30.3	MBC (Streptococcus pyogenes [17]): 100 µg/mL (≈ 446 µM); diameter of the inhibition zone (DIZ) (Streptococcus pyogenes [19]): 18.6 mm; MIC (Candida albicans [20]): 50 µg/mL (≈ 223 µM); MIC (Escherichia coli [21]): 50 µg/mL (≈ 223 µM); MFC (Aspergillus fumigatus [23]): 100 µg/mL (≈ 446 µM); diameter of the inhibition zone (DIZ) (Aspergillus fumigatus [24]): 16.8 mm; MIC (Aspergillus fumigatus [27]): 50 µg/mL (≈ 223 µM); MIC (Klebsiella pneumoniae [28]): 50 µg/mL (≈ 223 µM); diameter of the inhibition zone (DIZ) (Candida albicans [29]): 21.4 mm; MIC (Streptococcus pyogenes [30]): 50 µg/mL (≈ 223 µM); MBC (Escherichia coli [31]): 100 µg/mL (≈ 446 µM); MFC (Talaromyces marneffei [32]): 100 µg/mL (≈ 446 µM); MIC (Talaromyces marneffei [33]): 50 µg/mL (≈ 223 µM)
CC1(c2ccc(O)cc2O)NNC(=O)CO1 (stereo not given)	17.1	49	6.28 (≈ 28 µM)	14.1	17.2	50 (≈ 223 µM)	100 (≈ 446 µM)	24.4	100 (≈ 446 µM)	11.1	100 (≈ 446 µM)	50 (≈ 223 µM)	14.1	100 (≈ 446 µM)	> 100	50 (≈ 223 µM)	30.2	81.1	15.7	64	MBC (Streptococcus pyogenes [17]): 100 µg/mL (≈ 446 µM); diameter of the inhibition zone (DIZ) (Streptococcus pyogenes [19]): 18.1 mm; MIC (Candida albicans [20]): 50 µg/mL (≈ 223 µM); MIC (Escherichia coli [21]): 50 µg/mL (≈ 223 µM); MFC (Aspergillus fumigatus [23]): 100 µg/mL (≈ 446 µM); diameter of the inhibition zone (DIZ) (Aspergillus fumigatus [24]): 16.2 mm; MIC (Aspergillus fumigatus [27]): 50 µg/mL (≈ 223 µM); MIC (Klebsiella pneumoniae [28]): 50 µg/mL (≈ 223 µM); diameter of the inhibition zone (DIZ) (Candida albicans [29]): 20.2 mm; MIC (Streptococcus pyogenes [30]): 50 µg/mL (≈ 223 µM); MBC (Escherichia coli [31]): 100 µg/mL (≈ 446 µM); MFC (Talaromyces marneffei [32]): > 100 µg/mL; MIC (Talaromyces marneffei [33]): 50 µg/mL (≈ 223 µM)
